# Laboratory results as given in patent publication US9226505B2, “4-substituted 1-phenylpyrazole-3-carboxylic acid derivatives as agents against abiotic plant stress” (BAYER INTELLECTUAL PROPERTY GMBH, priority 2011, dated 2016).
# System: BRSNS
# Assay: Drought stress test on crop plants, spray application, visual damage rating (BRSNS)
# Assay type: in vivo, Brassica napus
# Conditions: dosage 250 g/ha, mean of three results
# Protocol: Seeds of monocotyledonous and dicotyledonous crop plants were laid out in sandy loam in wood-fiber pots, covered with soil and cultivated in a greenhouse under good growth conditions. The test plants were treated at the early leaf stage (BBCH10-BBCH13). To ensure uniform water supply before commencement of stress, the potted plants were supplied with the maximum amount of water immediately beforehand by dam irrigation and, after application, transferred into plastic inserts in order to prevent subsequent, excessively rapid drying. The compounds according to the invention, formulated in the form of wettable powders (WP), wettable granules (WG), suspension concentrates (SC) or emulsion concentrates (EC), were sprayed onto the green parts of the plants as an aqueous suspension at an equivalent water application rate of 600 I/ha with addition of 0.2% wetting agent (agrotin). Substance application is followed immediately by stress treatment of the plants (cold or drought stress). […]
# After the recovery phase had ended, the intensities of damage were rated visually in comparison to untreated, unstressed controls of the same age (in the case of drought stress) or the same growth stage (in the case of cold stress). The intensity of damage was first recorded as a percentage (100%=plants have died, 0%=like control plants). […]
compound,measurement,value
"CCCn1cc(-c2cn(-c3ccc(F)cc3)nc2C(=O)OCC)cn1 [1-878, Ethyl 1-(4-fluorophenyl)-1-propyl-1H, 1′H-4,4′-bipyrazole-3-carboxylate]","EF (BRSNS), efficacy = percentage reduction in the intensity of damage",>5%
